Assay results reported in US20240400712A1, “A PLATFORM TO OBTAIN MONOCLONAL ANTIBODIES DIRECTED AGAINST PROCESSED TUMOR-SPECIFIC ANTIGENS” (MEDITERRANEA THERANOSTIC SRL, priority 2020, published 2024).

What was measured:
ADAM10 = target: T1, ADAM10 (Mus musculus, UniProt O35598); experiment: Western blot of Trop-2 processing after ADAM10 inhibition or silencing in MTE 4-14/Trop-2 transfectants; format: cell-based, murine; conditions: for concentration found effective (up to): inhibition of Trop-2 cleavage in cells
T1 construct: endogenous in cells; host or cells: MTE 4-14 cells (transformed thymus cells) transfected with Trop-2
T1 sequence (O35598 215-749): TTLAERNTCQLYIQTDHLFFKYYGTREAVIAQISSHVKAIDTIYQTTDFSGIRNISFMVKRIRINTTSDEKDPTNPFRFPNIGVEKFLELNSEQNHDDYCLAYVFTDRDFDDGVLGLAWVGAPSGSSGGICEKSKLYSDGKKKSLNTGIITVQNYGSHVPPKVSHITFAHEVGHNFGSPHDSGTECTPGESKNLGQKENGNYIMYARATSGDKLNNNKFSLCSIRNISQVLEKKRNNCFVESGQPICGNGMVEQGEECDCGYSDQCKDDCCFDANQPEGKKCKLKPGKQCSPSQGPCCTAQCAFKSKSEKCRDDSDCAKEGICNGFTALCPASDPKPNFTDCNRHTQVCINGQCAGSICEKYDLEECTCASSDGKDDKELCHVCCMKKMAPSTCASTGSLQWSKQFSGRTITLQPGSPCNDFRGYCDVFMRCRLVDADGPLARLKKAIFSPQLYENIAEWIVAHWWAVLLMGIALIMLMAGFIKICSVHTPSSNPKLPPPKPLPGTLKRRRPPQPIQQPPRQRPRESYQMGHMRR
Protocol: ADAM 10 activity was inhibited in the MTE 4-14/Trop-2 transfectants by treatment with chemical inhibitors or mRNA silencing, and the effect on Trop-2 processing and on Trop-2-dependent cell growth was evaluated.
A. WB analysis following treatment with the broad-spectrum metalloprotease inhibitor GM6001 or with the specific ADAM10 inhibitor G1254023X (Ludwig, Hundhausen et al. 2005) or ADAM10 siRNA silencing, as indicated. […] T2-p: processed Trop-2; na: native form; pr processed form.
Western blotting was performed as described (El Sewedy, Fomaro et al. 1998). Tumors from experimental animals were rapidly frozen upon surgical removal and stored at −80° C. Frozen samples were quickly thawed and homogenized with a Dounce homogenizer. Cleared homogenates of tumors and cultured cell lysates were analyzed by SDS-PAGE and transferred to nitrocellulose filters. Filters were hybridized with anti-human Trop-2 (affinity-purified polyclonal rabbit antiserum) or anti-ADAM10 antibodies.
Cells were treated with ADAM10 inhibitors for 24 hours at the minimum concentration found to be effective in inhibiting Trop-2 cleavage, then assayed as indicated. The GM6001 metalloprotease family inhibitor (Calbiochem) was dissolved in DMSO and used at 6.5-13 μM for 24 hours; up to 50 μM GM6001 were found effective. The G1254023X selective ADAM10 inhibitor, dissolved in DMSO, was kindly provided by Dr. A. Ludwig. Cells received two doses (10 μM) every 24 hours for 48 hours; up to 20 μM G1254023X were found effective. Control cells received vehicle alone.
(§1) Complementary strategies were utilized for siRNA design. Briefly, Tuschl' criteria were applied, i.e. position in the mRNA, GC content, base composition and flanking sequences (Elbashir, Harborth et al. 2001). Invitrogen (maidesigner.invitrogen.com/maiexpress/) provides a proprietary algorithm that performs a statistical analysis of the target sequence, based on sequence composition, nucleotide content and thermodynamic properties, and compares candidates with validated siRNA sequences. The Whitehead Institute web site (jura.wi.mit.edu/bioc/siRNAext/) combines Tuschl' criteria with predictions of binding energies for both sense and antisense siRNAs and with BLAST filtering of cross-hybridizing sequences (Semizarov, Frost et al. 2003). […] Annealed oligos were subcloned into the pSUPER vector, kindly provided by Dr. R. Bemard (Brummelkamp, Bemards et al. 2002), under the control of the RNA polymerase Ill H1 gene promoter. siRNA expression constructs were transiently transfected MTE 4-14 transfectants, and cell growth was measured. siRNA-targeted transcript levels were quantified by real-time PCR. […]

[1] = test system: metastatic triple-negative breast cancer (TNBC); conditions: cited from earlier work
MTE 4-14 cells = experiment: In vitro cell growth of MTE 4-14 transfectants after siRNA-mediated inhibition; format: cell-based, murine
Protocol: C. In vitro growth curves of MTE 4-14 cells transfected with the empty vector, wtTrop-2 or R87A-T88A Trop-2 upon ADAM10 (upper graphs, black,), MMP9 (lower graphs, black,) or control (human CD133, gray), siRNA-mediated inhibition. Bars: SEM. The p value for the only significant difference (ANOVA analysis) is indicated. Stars indicate post-hoc Bonferroni's t test p values (*≤0.05, ***≤0.001).
Cell transfectants were seeded at 1.5-3.0×10^3 cells/well in 96-well plates (five replica wells per data point). Cell numbers were quantified by staining with crystal violet (Orsulic, Li et al. 2002).
Cell numbers were normalized against a standard reference curve of two-fold serially diluted cell samples.
as §1

CNC(=O)[C@@H](NC(=O)[C@H](CCCc1ccccc1)[C@H](C)N(O)C=O)C(C)(C)C [G1254023X]
minimum concentration found to be effective in inhibiting Trop-2 cleavage (ADAM10; concentration used on cells, GM6001 for 24 hours, G1254023X two doses every 24 hours for 48 hours): 10 µM
concentration found effective (up to) (ADAM10): up to 20 μM

CNC(=O)[C@H](Cc1c[nH]c2ccccc12)NC(=O)[C@@H](CC(=O)NO)CC(C)C [GM6001]
concentration found effective (up to) (ADAM10): up to 50 μM

Sacituzumab govitecan-hziy
efficacy in patients [1]: effective in patients with metastatic triple-negative breast cancer (TNBC)

B1: ADAM10 siRNA: siRNA targeting murine ADAM10 (NM_007399.3, nt 292-309), SEQ ID NO: 57-58, in pSUPER vector (nucleic acid, listed as Mus musculus)
sense: GATCCCCAGACATTATGAAGGATTATTTCAAGAGAATAATCCTTCATAATGTCTTTTTTGGAAA
antisense: AGCTTTTCCAAAAAAGACATTATGAAGGATTATTCTCTTGAAATAATCCTTCATAATGTCTGGG
ADAM10 band in WB after siRNA treatment (ADAM10; MTE 4-14/Trop-2 transfectants): disappearance of the corresponding band
effect on growth of R87A-T88A or empty vector transfectants (MTE 4-14 cells; MTE 4-14 cells transfected with R87A-T88A Trop-2 or empty vector): no effect
effect on Trop-2 dependent growth in wtTrop-2 transfectants (MTE 4-14 cells; MTE 4-14 cells transfected with wtTrop-2, in vitro proliferation): overrides Trop-2 dependent growth stimulus

B2: siRNAs targeting MMP9: control siRNA targeting murine MMP9 (NM_013599, nt 1780-1798), SEQ ID NO: 59-60 (nucleic acid, listed as Mus musculus)
sense: GATCCCCCCGCAGACCAAGAGGGTTTTTCAAGAGAAAACCCTCTTGGTCTGCGGTTTTTGGAAA
antisense: AGCTTTTCCAAAAACCGCAGACCAAGAGGGTTTTCTCTTGAAAAACCCTCTTGGTCTGCGGGGG
effect on cell proliferation (MTE 4-14 cells; control siRNA, MTE 4-14 transfectants): no effect on cell proliferation
